How the values were obtained:
Format in all cases: cell-based
human TLR7 = target: T1, human TLR7 (Homo sapiens, UniProt Q9NYK1); test: TLR7 inhibition reporter assay (HEK-Blue cells, SEAP reporter, gardiquimod stimulation); details: HEK-Blue cells overexpressing human TLR7, SEAP reporter, gardiquimod 7.5 μM
T1 construct: host or cells: HEK-Blue cells
T1 sequence (Q9NYK1 27-1049): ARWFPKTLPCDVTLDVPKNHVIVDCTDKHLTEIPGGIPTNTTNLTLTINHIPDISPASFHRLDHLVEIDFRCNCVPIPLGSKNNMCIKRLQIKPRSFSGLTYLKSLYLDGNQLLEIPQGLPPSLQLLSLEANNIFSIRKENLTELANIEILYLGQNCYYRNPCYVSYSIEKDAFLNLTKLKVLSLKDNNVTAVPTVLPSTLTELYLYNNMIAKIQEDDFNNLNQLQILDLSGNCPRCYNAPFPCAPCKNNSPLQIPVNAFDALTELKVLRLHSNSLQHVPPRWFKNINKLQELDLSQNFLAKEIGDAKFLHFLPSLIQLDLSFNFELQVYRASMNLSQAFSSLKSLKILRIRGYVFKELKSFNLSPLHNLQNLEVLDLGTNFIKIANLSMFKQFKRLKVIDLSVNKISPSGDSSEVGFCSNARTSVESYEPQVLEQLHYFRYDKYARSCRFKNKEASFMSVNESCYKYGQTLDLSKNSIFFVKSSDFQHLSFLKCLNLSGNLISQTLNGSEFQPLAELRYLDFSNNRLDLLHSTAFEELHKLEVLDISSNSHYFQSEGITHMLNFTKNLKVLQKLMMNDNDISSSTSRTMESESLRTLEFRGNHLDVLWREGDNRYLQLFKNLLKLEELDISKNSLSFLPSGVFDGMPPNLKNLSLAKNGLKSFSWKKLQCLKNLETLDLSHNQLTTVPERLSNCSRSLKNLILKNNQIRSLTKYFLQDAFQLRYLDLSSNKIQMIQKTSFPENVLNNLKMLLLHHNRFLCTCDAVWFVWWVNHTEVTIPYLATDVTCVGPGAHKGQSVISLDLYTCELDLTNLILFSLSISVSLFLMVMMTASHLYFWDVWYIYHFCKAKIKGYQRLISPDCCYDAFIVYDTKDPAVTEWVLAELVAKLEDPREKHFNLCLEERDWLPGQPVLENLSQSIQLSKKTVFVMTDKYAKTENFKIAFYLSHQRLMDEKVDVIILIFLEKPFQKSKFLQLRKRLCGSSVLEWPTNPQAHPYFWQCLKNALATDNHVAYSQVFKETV
Method in brief: (§1)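 Percent inhibition is derived from SEAP signal, scaled between agonist-plus-DMSO wells and wells given a known inhibitor. Test compounds (0.05 nM–50 μM) are pre-incubated 30 min at room temperature before agonist addition (TLR7: 7.5 μM gardiquimod; TLR8: 15.9 μM R848; TLR9: 5 nM ODN2006) and 22 h culture at 37 °C.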

human TLR8 = target: T2, human TLR8 (Homo sapiens, UniProt Q9NR97); test: TLR8 inhibition reporter assay (HEK-Blue cells, SEAP reporter, R848 stimulation); details: HEK-Blue cells overexpressing human TLR8, SEAP reporter, R848 15.9 μM
T2 construct: host or cells: HEK-Blue cells
T2 sequence (Q9NR97 27-1041): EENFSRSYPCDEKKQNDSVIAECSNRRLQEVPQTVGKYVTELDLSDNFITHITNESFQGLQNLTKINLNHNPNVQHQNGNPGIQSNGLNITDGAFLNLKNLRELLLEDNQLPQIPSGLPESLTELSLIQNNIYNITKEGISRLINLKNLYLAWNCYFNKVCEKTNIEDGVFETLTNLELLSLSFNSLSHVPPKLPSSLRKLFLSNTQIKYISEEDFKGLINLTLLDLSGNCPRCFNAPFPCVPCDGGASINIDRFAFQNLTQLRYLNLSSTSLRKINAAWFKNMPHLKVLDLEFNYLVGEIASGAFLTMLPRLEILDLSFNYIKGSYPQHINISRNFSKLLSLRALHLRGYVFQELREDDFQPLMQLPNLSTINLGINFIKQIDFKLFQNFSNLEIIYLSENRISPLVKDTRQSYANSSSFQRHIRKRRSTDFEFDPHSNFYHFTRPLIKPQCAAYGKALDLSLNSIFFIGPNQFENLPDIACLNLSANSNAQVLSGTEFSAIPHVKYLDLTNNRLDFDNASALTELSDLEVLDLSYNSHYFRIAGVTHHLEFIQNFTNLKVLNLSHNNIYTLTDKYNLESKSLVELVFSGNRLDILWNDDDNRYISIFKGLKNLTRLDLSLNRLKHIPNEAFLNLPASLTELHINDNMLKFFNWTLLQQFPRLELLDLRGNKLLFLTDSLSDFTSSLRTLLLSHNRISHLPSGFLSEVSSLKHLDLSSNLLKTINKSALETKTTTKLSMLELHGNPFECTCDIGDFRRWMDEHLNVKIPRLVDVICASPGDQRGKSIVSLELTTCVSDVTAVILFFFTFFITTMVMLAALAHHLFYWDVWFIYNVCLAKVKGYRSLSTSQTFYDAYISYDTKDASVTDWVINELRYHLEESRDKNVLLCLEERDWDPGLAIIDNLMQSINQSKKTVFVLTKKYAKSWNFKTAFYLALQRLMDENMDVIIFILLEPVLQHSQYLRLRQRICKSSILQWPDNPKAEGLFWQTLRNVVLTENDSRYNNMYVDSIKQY
Method in brief: as §1

human TLR9 = target: T3, human TLR9 (Homo sapiens, UniProt Q9NR96); test: TLR9 inhibition reporter assay (HEK-Blue cells, SEAP reporter, ODN2006 stimulation); details: HEK-Blue cells overexpressing human TLR9, SEAP reporter, ODN2006 5 nM
T3 construct: host or cells: HEK-Blue cells
T3 sequence (Q9NR96 26-1032): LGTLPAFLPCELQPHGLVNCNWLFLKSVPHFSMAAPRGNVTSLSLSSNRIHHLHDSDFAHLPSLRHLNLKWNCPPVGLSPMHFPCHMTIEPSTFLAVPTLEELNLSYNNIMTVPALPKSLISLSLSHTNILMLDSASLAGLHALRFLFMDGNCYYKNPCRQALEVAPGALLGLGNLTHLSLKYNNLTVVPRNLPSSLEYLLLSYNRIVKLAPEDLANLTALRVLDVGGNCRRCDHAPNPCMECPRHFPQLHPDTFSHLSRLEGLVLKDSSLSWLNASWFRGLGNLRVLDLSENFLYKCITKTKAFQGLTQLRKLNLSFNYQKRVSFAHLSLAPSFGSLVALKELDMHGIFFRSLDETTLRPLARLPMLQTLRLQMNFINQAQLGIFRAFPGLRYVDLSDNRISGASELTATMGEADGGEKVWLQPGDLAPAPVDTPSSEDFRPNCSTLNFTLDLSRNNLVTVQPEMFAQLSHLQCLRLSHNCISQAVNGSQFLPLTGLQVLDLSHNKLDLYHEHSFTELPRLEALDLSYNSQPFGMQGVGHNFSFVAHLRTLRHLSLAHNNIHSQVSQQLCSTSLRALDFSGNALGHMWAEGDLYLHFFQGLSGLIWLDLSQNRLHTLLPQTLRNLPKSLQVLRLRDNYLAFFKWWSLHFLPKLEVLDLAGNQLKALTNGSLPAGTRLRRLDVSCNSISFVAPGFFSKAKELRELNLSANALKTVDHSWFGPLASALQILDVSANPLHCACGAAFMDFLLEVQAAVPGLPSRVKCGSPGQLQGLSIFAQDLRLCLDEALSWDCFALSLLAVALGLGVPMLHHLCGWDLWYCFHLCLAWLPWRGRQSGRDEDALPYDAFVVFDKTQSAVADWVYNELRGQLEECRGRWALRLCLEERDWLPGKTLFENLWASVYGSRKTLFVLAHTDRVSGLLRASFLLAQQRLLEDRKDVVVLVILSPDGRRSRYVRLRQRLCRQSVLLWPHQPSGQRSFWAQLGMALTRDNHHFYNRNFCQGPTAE
Method in brief: as §1

SMILES	IC50 (human TLR7) [nM]	IC50 (human TLR8) [nM]	IC50 (human TLR9) [nM]
Cc1cc(-c2[nH]c3ccc(C4CCC(C(=O)N5CCOCC5)CC4)cc3c2C(C)C)cn2ncnc12 (stereo not drawn) [Example 161]	3	59	4800
COc1cc(-c2[nH]c3ccc(C4CCC(NCC(F)(F)F)CC4)cc3c2C(C)C)cn2ncnc12 (single isomer, unassigned) [Example 108]	7	38	19800
Cc1cc(-c2[nH]c3ccc(C4CCC(N5CCCC(F)(F)C5)CC4)cc3c2C(C)C)cn(C)c1=O (stereo not drawn) [Example 467]	48	33	47000
COCC(=O)N1CCCC(c2ccc3[nH]c(-c4cc(C)nc(C)c4)c(C(C)C)c3c2)C1 (stereo not drawn) [Example 205]	120	402	> 50000
CNC(=O)CN1CCOC(c2ccc3[nH]c(-c4cc(OC)c5ncnn5c4)c(C(C)C)c3c2)C1 (stereo not drawn) [Example 315]	9	26	> 50000
Cc1cc(-c2[nH]c3ccc(C4CCC(N(C)C5CC5)CC4)cc3c2C(C)C)cn2ncnc12 (single isomer, unassigned) [Example 9]	0.36	1.8	1880
CCN(C)C1CCC(c2ccc3[nH]c(-c4cc(OC)c5ncnn5c4)c(C(C)C)c3c2)CC1 (single isomer, unassigned) [Example 65]	0.23	1.3	1150
COc1cc(-c2[nH]c3ccc(C4CNC(C)(C)CO4)cc3c2C(C)C)cn2ncnc12 (stereo not drawn) [Example 369]	0.5	0.48	2620
CNCC(=O)NC1CCC(c2ccc3[nH]c(-c4cc(C)nc(C)c4)c(C(C)C)c3c2)CC1 (single isomer, unassigned) [Example 130]	5	33	236
Cc1cc(-c2[nH]c3ccc(C4CN(CC(N)=O)CCO4)cc3c2C(C)C)cn2ncnc12 (stereo not drawn) [Example 318]	6	48	> 50000
Cc1c(-c2[nH]c3ccc(C4CN(CC5CCOC5)C4)cc3c2C(C)C)cn(C)c(=O)c1Cl (stereo not drawn) [Example 499]	43	25	9970
Cc1c(-c2[nH]c3ccc(C4CN(CCS(C)(=O)=O)CCO4)cc3c2C(C)C)cn2ncnc2c1C (stereo not drawn) [Example 347]	22	14	> 50000
Cc1cc(-c2[nH]c3ccc(C4CN(C(=O)CN(C)C)CCO4)cc3c2C(C)C)cc(C)n1 (stereo not drawn) [Example 336]	10	10	530
Cc1cc(-c2[nH]c3ccc(C4CCC(O)CC4)cc3c2C(C)C)cc(C)n1 (single isomer, unassigned) [Example 172, 4-(2-(2,6-dimethylpyridin-4-yl)-3-isopropyl-1H-indol-5-yl)cyclohexanol]	8	35	15800
Cc1c(-c2[nH]c3ccc(C4CCCNC4)cc3c2C(C)C)ccc2ncnn12 (stereo not drawn) [Example 188]	161	66	7050
Cc1cc(-c2[nH]c3ccc(C4CCCN(C(=O)C5CNC5)C4)cc3c2C(C)C)cc(C)n1 (stereo not drawn) [Example 215]	19	123	677
CC(C)c1c(-c2ccnc3[nH]ncc23)[nH]c2ccc(CN3CCCCC3)cc12 [Example 443]	279	158	2850
Cc1cc(-c2[nH]c3ccc(C4CCC(N)CC4)cc3c2C(C)C)cn2ncnc12 (single isomer, unassigned) [Example 4]	6	45	3170
Cc1cc(-c2[nH]c3ccc(C4CCN(C(=O)CN(C)C)C4)cc3c2C(C)C)cc(C)n1 (stereo not drawn) [Example 591]	8	8.7	1010
CNC1CCC(c2ccc3[nH]c(-c4cc(C)c5ncnn5c4)c(C(C)C)c3c2)CC1 (single isomer, unassigned) [Example 58]	2	6.6	3100
Cc1cc(-c2[nH]c3ccc(C4CCCNC4)cc3c2C(C)C)cc(C)n1 (stereo not drawn) [Example 187]	2	3.9	274
Cc1cc(-c2[nH]c3ccc(C4CN(CCS(C)(=O)=O)CCO4)cc3c2C(C)C)cc(C)n1 (stereo not drawn) [Example 353]	95	31	> 50000
Cc1c(-c2[nH]c3ccc(C4CN(C(=O)CN(C)C)C4)cc3c2C(C)C)cn2ncnc2c1C [Example 564]	3	7	7310
COc1ccc(-c2[nH]c3ccc(C4CCCN(CC(=O)N(C)C)C4)cc3c2C(C)C)cc1OC (stereo not drawn) [Example 227]	156	51	3770

From patent US11878975B2, “Substituted indole compounds useful as TLR inhibitors” (BRISTOL-MYERS SQUIBB COMPANY, priority 2017, dated 2024)
